Test system: adult Japanese patients with SBS-IF
Experiment: Plasma citrulline, biomarker of intestinal epithelial mass, change from baseline
Assay type: in vivo, human
Experimental: Concentrations of plasma citrulline, a biomarker of intestinal epithelial mass, were measured at baseline; weeks 4, 8, 16, and 24; and then every 2 months thereafter up to 30 months of treatment. Patients who continued into SHP633-307 from SHP633-306 had measurements taken at month 12, while those continuing from TED-C14-004 had measurements taken every 3 months.
Efficacy endpoints were defined in an analogous manner to previous pivotal studies. These included a clinically meaningful reduction in weekly PS volume of ≥ 20% [17] measured between baseline and both 20 and 24 weeks for TED-C14-004 and SHP633-306, and a continued reduction in weekly PS volume of ≥ 20% from the baseline in core studies at each scheduled visit until the last visit before the interim data cut-off of SHP633-307. Other efficacy endpoints included changes in absolute and percentage weekly PS volumes from the baseline in the core studies at each study visit, the number of days per week of PS, the number of patients who achieved enteral autonomy at the end of treatment or the data cut-off, and the changes in plasma citrulline levels from baseline in the core studies. The primary efficacy data were derived from patient diaries and compared against investigator-prescribed data captured in electronic case report forms.

[1] = 24 weeks, SHP633-306, n = 6, mean ± SD
[2] = 24 weeks, TED-C14-004, n = 9, mean ± SD
[3] = 30 months, TED-C14-004, n = 7, mean ± SD
[4] = interim cut-off of the extension study, patients from SHP633-306, mean ± SD
[5] = interim data cut-off of SHP633-307, patients from TED-C14-004, up to 57 months, n = 7, mean ± SD

CC[C@H](C)[C@H](NC(=O)[C@H](Cc1ccccc1)NC(=O)[C@H](CC(=O)O)NC(=O)[C@H](CCCNC(=N)N)NC(=O)[C@H](C)NC(=O)[C@H](C)NC(=O)[C@H](CC(C)C)NC(=O)[C@H](CC(N)=O)NC(=O)[C@H](CC(=O)O)NC(=O)[C@H](CC(C)C)NC(=O)[C@@H](NC(=O)[C@@H](NC(=O)[C@H](CC(N)=O)NC(=O)[C@H](CCSC)NC(=O)[C@H](CCC(=O)O)NC(=O)[C@H](CC(=O)O)NC(=O)[C@H](CO)NC(=O)[C@H](Cc1ccccc1)NC(=O)[C@H](CO)NC(=O)CNC(=O)[C@H](CC(=O)O)NC(=O)CNC(=O)[C@@H](N)Cc1c[nH]cn1)[C@@H](C)O)[C@@H](C)CC)C(=O)N[C@@H](CC(N)=O)C(=O)N[C@@H](Cc1c[nH]c2ccccc12)C(=O)N[C@@H](CC(C)C)C(=O)N[C@H](C(=O)N[C@@H](CCC(N)=O)C(=O)N[C@H](C(=O)N[C@@H](CCCCN)C(=O)N[C@H](C(=O)N[C@H](C(=O)N[C@@H](CC(=O)O)C(=O)O)[C@@H](C)O)[C@@H](C)CC)[C@@H](C)O)[C@@H](C)CC [teduglutide]
Plasma citrulline increase from baseline [1]: 14.3 ± 10.9 µM | Plasma citrulline percent increase from baseline [1]: 106.3% ± 114.9% | Plasma citrulline increase from baseline [2]: 15.0 ± 17.4 µM | Plasma citrulline percent increase from baseline [2]: 86.9% ± 112.3% | Plasma citrulline increase from baseline [3]: 28.3 ± 24.1 µM | Plasma citrulline percent increase from baseline [3]: 135.0% ± 84.2% | Plasma citrulline increase from baseline [4]: 13.0 ± 5.6 µM | Plasma citrulline percent increase from baseline [4]: 79.1% ± 33.5% | Plasma citrulline increase from baseline [5]: 19.2 ± 18.9 µM | Plasma citrulline percent increase from baseline [5]: 103.6% ± 88.7%
